Test: Base number (TBN) according to ASTM D2896
Format: physicochemical
Conditions: neat ionic liquid
Experimental: An oil's neutralization capacity is measured by its BN or Base Number, characterized by its basicity. It is measured according to standard ASTM D-2896 and is expressed as an equivalent in milligrams of potash per gram of oil (also called “mg of KOH/g” or “BN point”). The BN is a standard criterion making it possible to adjust the basicity of the cylinder oils to the sulphur content of the fuel oil used, in order to be able to neutralize all of the sulphur contained in the fuel, and capable of being converted to sulphuric acid by combustion and hydrolysis.

**Q.** With “Tri-n-Octylmethylammonium 2-Ethylhexanoate [IL1]” as the substance, how does the base number read?
**A.** The base number was 114 mg KOH/g.

— US12065622B2, “Ammonium-based ionic liquid and its use as a lubricant additive” (TOTALENERGIES ONETECH, priority 2020, dated 2024)
